One data set concerns the target CYP3A4 (Homo sapiens (Human), UniProt P08684). Nature of the data set: Time-dependent inhibition of CYP3A4 (TDI assay, human liver microsomes). The format is in vitro ADME. The following applies: for CYP3A4 TDI % @ 10 μM: human liver microsomes, Midazolam substrate, 30 min with NADPH vs 0 min; for time-dependent inhibition on CYP3A4 (conclusion): conclusion drawn from Table 3, 10 μM. The protocol: Effect Example 3. Time-Dependent Inhibition of CYP3A4
1. Preheating potassium phosphate buffer (K-buffer), pH 7.4: 100 mM potassium phosphate buffer (K-buffer) was prepared by mixing 9.5 mL of solution A with 40.5 mL of solution B, diluting to 500 mL with ultrapure water, and then adjusting to pH 7.4 with KOH or H3PO4, wherein the solution A (1M potassium dihydrogenphosphate) was prepared by dissolving 136.5 g of potassium dihydrogenphosphate in […] of ultrapure water.
2. Preparation of human liver microsome suspension (1.3 mg/mL, 1.3×, stock: 20 mg/mL): 100 μL of human liver microsome suspension (20 mg/mL) was added into […] of K-buffer.
3. Preparation of NADPH solution (4.167 mg/mL, 5 mM): 8.3 mg of NADPH was added into 2 mL of buffer.
4. Preparation of substrate solution (1.5× final): 1.5 μL of 10 mM Midazolam was added to 998.5 μL of K-buffer to yield the substrate mixture.
5. Preparation of 100× test compound, reference and blank control solutions: 3 μL of 10 mM stock solution of test compound was added to 27 μL of ACN; 3 μL of positive control stock solution was added to 27 μL of ACN; and 3 μL of DMSO was added to 27 μL of ACN to serve as blank control.
6. Primary preheating system: An NADPH-free system for 0 min incubation: 78 μL of 1.3× human liver microsome solution (step 2) was mixed with 1 μL of the 100× stock solutions of positive control, test compound, or blank control (step 5); A system containing NADPH for 30 min incubation: 78 μL of 1.3× human liver microsome solution (step 2) was mixed with 1 μL of the 100× stock solutions of positive control, test compound, or blank control (step 5).
7. Secondary preheating system: 150 μL of the substrate solution prepared in step 4 was added into a deep well plate together with the NADPH solution from step 3
8. The samples were preheated for 10 min in a 37° C. water bath.
9. Reaction procedure: (1) reaction for 0 min: 21 μL of K-buffer was added to the primary preheating system and mixed well without incubation; 20 μL of the mixture was immediately transferred into the plate of the secondary preheating system; after mixing, the secondary system was incubated in a 37° C. water bath for 15 min, and 60 μL of the reaction mixture was added into 120 μL of acetonitrile containing internal standard to terminate the reaction; and (2) reaction for 30 min: 21 μL of NADPH was added into the primary preheating system for a 30-min incubation after mixing; 20 μL of the mixture was added into the secondary preheating system prior to mixing; the mixture was incubated in a 37° C. water bath for 15 min, and 60 μL of the reaction mixture was added into 120 μL of acetonitrile containing internal standard to terminate the reaction.
10. After termination, the samples were shaken on a shaker at 600 rpm for 10 min and centrifuged at 5594 g for 15 min prior to LC-MS/MS analysis.
In general terms: Liver microsomes are a subcellular fraction often used to study metabolism.

For the next data set, the target named is Autotaxin (ATX) (Homo sapiens (Human), UniProt Q13822). Nature of the data set: ATX bioactivity assay (Amplex Red / choline oxidase / HRP fluorescence, LPC 16:0 substrate). The format is biochemical. The following applies: 30 min room temperature. As for the experimental part:
Effect Example 1 Bioactivity Assay
Preparation and Treatment
Stock Solution Preparation
A 10 mM DMSO stock solution was formulated for each compound. A 30 mM DMSO stock solution was formulated for positive control HA130.
The DMSO stock solutions were stored at room temperature in a desiccator for a short period of time or at −20° C. for a long period of time.
All compounds were serially 3-fold diluted in DMSO from 10 μM to the 10th concentration.
A 1000× positive control (10 mM, HA130) and a 1000× negative control (100% DMSO) were prepared.
The plates were shaken for 5 min.
Preparation of 1× Reaction Buffer:
5× reaction buffer and cold water were mixed well in a volume ratio of 1:4.
Preparation of 20 U/mL Choline Oxidase Stock Solution:
1 tube of choline oxide in a kit was dissolved in 1× reaction buffer. The aliquots were frozen at −20° C.
Preparation of 200 U/mL Horseradish Peroxidase (HRP) Stock Solution:
1 tube of HRP in a kit was dissolved in 1 mL of 1× reaction buffer. The aliquots were frozen at −20° C.
Preparation of 20 mM Amplex® Red Reagent (for Detection) Stock Solution
Amplex Red reagent and DMSO were equilibrated at room temperature. 1 tube of Amplex Red reagent in a kit was dissolved in 200 μL of DMSO.
a) 2×ATX ([…]), 2×HRP ([…]), 2× choline oxidase (0.2 U/mL) were added to 1× reaction buffer.
b) 20 μL of the reaction mixture was added to the plate (PE, 6007270) (refer to step a).
c) 40 nL of diluent was added to the plate using Echo (refer to “Preparation”).
d) 2×LPC (16:0) (60 mM) and 2× Amplex® Red ([…]) were prepared using 1× reaction buffer.
e) 20 μL of the mixture was added to the plate (refer to step d).
f) The plate was shaken for 30 s and allowed to stand at room temperature for 30 min.
g) The plate was examined using Envision, and the procedure was as follows: Excitation at 530 nm; and Emission at 590 nm.
Formula for Calculating % Inhibition (Percent Inhibition Rate) as Follows:
FLU: Fluorescence (fluorescence reading)
FLUpositive: Average fluorescence value in positive control wells (10 μM HA130) in the plate.
FLUvehicle: Average fluorescence value in negative control wells (0.1% DMSO) in the plate.
Calculation of IC50 and Dose-Response Curve:
IC50 of the compounds was calculated via a non-linear regression line (dose-variable slope) fitted using % inhibition and log of compound concentration. The software used was Graphpad 5.0. Y=Bottom+(Top−Bottom)/(1+10^((Log IC50−X)×Hill Slope))
X: log of inhibitor concentration

Sequence of CYP3A4 (P08684 whole entry): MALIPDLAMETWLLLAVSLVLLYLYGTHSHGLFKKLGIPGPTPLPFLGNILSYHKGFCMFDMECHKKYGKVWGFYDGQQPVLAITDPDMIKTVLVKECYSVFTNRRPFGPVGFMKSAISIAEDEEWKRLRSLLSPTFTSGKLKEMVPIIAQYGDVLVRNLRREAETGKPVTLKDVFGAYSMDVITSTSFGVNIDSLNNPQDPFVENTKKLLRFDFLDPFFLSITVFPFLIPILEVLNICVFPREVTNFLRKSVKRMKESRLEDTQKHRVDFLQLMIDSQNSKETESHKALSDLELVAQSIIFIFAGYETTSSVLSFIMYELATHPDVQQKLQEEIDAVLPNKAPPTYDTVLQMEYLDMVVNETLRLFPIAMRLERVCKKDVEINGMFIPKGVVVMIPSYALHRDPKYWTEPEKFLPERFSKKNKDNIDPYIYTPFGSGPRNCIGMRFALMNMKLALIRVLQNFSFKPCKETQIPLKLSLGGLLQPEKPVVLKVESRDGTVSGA

As to `CCc1oc2ncc(N3CCN(CC(=O)N4CC(O)C4)CC3)cc2c1N(C)c1nc(-c2ccc(F)cc2)c(C#N)s1` [Compound S-0045, 2-((2-ethyl-5-(4-(2-(3-hydroxyazetidin-1-yl)-2-oxoethyl)piperazin-1-yl)furo[2,3-b]pyridin-3-yl)(methyl)amino)-4-(4-fluorophenyl)thiazole-5-carbonitrile], at CYP3A4, the “CYP3A4 TDI % @ 10 μM” value is reported as 2.68% and the “time-dependent inhibition on CYP3A4 (conclusion)” value (“time-dependent inhibition” below) is given as “no time-dependent inhibition on CYP3A4”. At Autotaxin (ATX), the IC50 (in general, the concentration at which inhibition is half-maximal) is 261 nM.
Consider `CCc1oc2c(F)cc(N3CCN(CC(=O)N4CC(O)C4)CC3)cc2c1N(C)c1nc(-c2ccc(F)cc2)c(C#N)s1` [Compound S-0024, 2-((2-ethyl-7-fluoro-5-(4-(2-(3-hydroxyazetidin-1-yl)-2-oxoethyl)piperazin-1-yl)benzofuran-3-yl)(methyl)amino)-4-(4-fluorophenyl)thiazole-5-carbonitrile], for which, at CYP3A4, the “CYP3A4 TDI % @ 10 μM” value came out at 4.8% and the “time-dependent inhibition” value was “no time-dependent inhibition on CYP3A4”. The molecule also showed a concentration for half-maximal inhibition (IC50) on Autotaxin (ATX) of 188 nM.
The corresponding values for `CCc1oc2cnc(N3CCN(CC(=O)N4CC(O)C4)CC3)cc2c1N(C)c1nc(-c2ccc(F)cc2)c(C#N)s1` [Compound S-0046, 2-((2-ethyl-5-(4-(2-(3-hydroxyazetidin-1-yl)-2-oxoethyl)piperazin-1-yl)furo[2,3-c]pyridin-3-yl)(methyl)amino)-4-(4-fluorophenyl)thiazole-5-carbonitrile] are 10.38%, “no time-dependent inhibition on CYP3A4” and above 10000 nM.
In the case of `CCn1nc2c(F)cc(N3CCN(CC(=O)N4CC(O)C4)CC3)cc2c1N(C)c1nc(-c2ccc(F)c(F)c2)c(C#N)s1` [Compound S-0027, 4-(3,4-difluorophenyl)-2-((2-ethyl-7-fluoro-5-(4-(2-(3-hydroxyazetidin-1-yl)-2-oxoethyl)piperazin-1-yl)-2H-indazol-3-yl)(methyl)amino) thiazole-5-carbonitrile], on CYP3A4, the “CYP3A4 TDI % @ 10 μM” value is 42.12% and the “time-dependent inhibition” value is recorded as “weak time-dependent inhibition on CYP3A4”. At Autotaxin (ATX), this molecule showed an IC50 of 165 nM.
Consider `CCc1nn2c(C)cc(N3CCN(CC(=O)N4CC(O)C4)CC3)nc2c1N(C)c1nc(-c2ccc(F)c(F)c2)c(C#N)s1` [Compound S-0068, 4-(3,4-difluorophenyl)-2-((2-ethyl-5-(4-(2-(3-hydroxyazetidin-1-yl)-2-oxoethyl)piperazin-1-yl)-7-methylpyrazolo[1,5-a]pyrimidin-3-yl)(methyl)amino) thiazole-5-carbonitrile], for which the IC50 against Autotaxin (ATX) was 107 nM.
The molecule `CCN(c1nc(-c2ccc(F)c(F)c2)c(C#N)s1)c1c2cc(N3CCN(CC(=O)N4CC(O)C4)CC3)cc(F)c2nn1CC` [Compound S-0123, 4-(3,4-difluorophenyl)-2-(ethyl(2-ethyl-7-fluoro-5-(4-(2-(3-hydroxyazetidin-1-yl)-2-oxoethyl)piperazin-1-yl)-2H-indazol-3-yl)amino)thiazole-5-carbonitrile] registered an IC50 against Autotaxin (ATX) of 32 nM.
Same read-out and setting: next, `CCn1nc2c(C)cc(N3CCN(CC(=O)N4CC(O)C4)CC3)nc2c1N(CC(F)(F)F)c1nc(-c2ccc(F)cc2)c(C#N)s1` [Compound S-0140, 2-((2-ethyl-5-(4-(2-(3-hydroxyazetidin-1-yl)-2-oxoethyl)piperazin-1-yl)-7-methyl-2H-pyrazolo[4,3-b]pyridin-3-yl)(2,2,2-trifluoroethyl)amino)-4-(4-fluorophenyl)thiazole-5-carbonitrile]: 325 nM; `CCn1nc2c(F)cc(N3CCN(CC(=O)N4CC(O)C4)CC3)cc2c1N(C)c1ccc(C#N)c(-c2ccc(F)cc2)n1` [Compound S-0030, 6-((2-ethyl-7-fluoro-5-(4-(2-(3-hydroxyazetidin-1-yl)-2-oxoethyl)piperazin-1-yl)-2H-indazol-3-yl)(methyl)amino)-2-(4-fluorophenyl)nicotinonitrile]: 407 nM.
For `CCc1nn2c(C)cc(N3CCN(CC(=O)N4CC(O)C4)[C@H](C)C3)nc2c1N(C)c1nc(-c2ccc(F)cc2)c(C#N)s1` [Compound S-0074, (R)-2-((2-ethyl-5-(4-(2-(3-hydroxyazetidin-1-yl)-2-oxoethyl)-3-methylpiperazin-1-yl)-7-methylpyrazolo[1,5-a]pyrimidin-3-yl)(methyl)amino)-4-(4-fluorophenyl)thiazole-5-carbonitrile], at Autotaxin (ATX), the half-inhibitory concentration (IC50) stood at 207 nM.
On the same count and under the same terms, as for `CCc1nn2ccc(N3CCN(CC(=O)N4CC(O)C4)CC3)nc2c1N(CC)c1nc(-c2ccc(F)cc2)c(C#N)s1` [Compound S-0082, 2-(ethyl(2-ethyl-5-(4-(2-(3-hydroxyazetidin-1-yl)-2-oxoethyl)piperazin-1-yl)pyrazolo[1,5-a]pyrimidin-3-yl)amino)-4-(4-fluorophenyl)thiazole-5-carbonitrile], the figure is 20 nM.

These data come from patent US11591342B2, “Heterocyclic compound, application thereof and pharmaceutical composition comprising same” (SUZHOU SINOVENT PHARMACEUTICALS CO., LTD., priority 2018, dated 2023).
